Literature values as cited in PMC3828007 (CPT: Pharmacometrics & Systems Pharmacology, 2013).

What was measured:
NET (plasma DHPG) = settings: read-out: in vivo EC50 for inhibitory effect on plasma DHPG

EC50 (NET (plasma DHPG))	Structure (SMILES)	CYP inhibition liability (CYP)
	COc1ccc(C(CN(C)C)C2(O)CCCCC2)cc1 (centres unmarked) [venlafaxine]	moderate
